Drawing on PubChem BioAssay AID2060492 (Molecular Pharmacology Branch, DTP, NCI, 2025), this text covers IC50 and viability, T/C for seven molecules.

Several values for one entry are separate records, joined by “and”; a condition that tells them apart may be missing. Equal entries are not always repeated.

In this experiment the test system is 695427-040-R-J1-PDC complex spheroids, viability percent T/C. The experiment is described as follows: Anticancer human tumor 695427-040-R-J1-PDC patient-derived colon adenocarcinoma cell line growth inhibition [GQUAD]. The settings on record: for viability, T/C: stronger effect = lower value. Put shortly: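 Viability of tumor cells grown as complex spheroids with endothelial and stromal cells, exposed to drug combinations. Top concentration at or near clinical Cmax (else 10 microM), diluted in half-log increments.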

The mark [1] stands for this setting: curve of first compound, second compound 0.0316 µM.
Setting [2] is: curve of first compound, second compound 0.1 µM.
[3] abbreviates: curve of first compound, second compound 0.316 µM.
[4] abbreviates: curve of first compound, second compound 1 µM.
The mark [5] stands for this setting: curve of first compound, second compound 3.16 µM.
Setting [6] is: curve of first compound, second compound 10 µM.
[7] abbreviates: second compound 0.0316 µM, first compound 0.0316 µM.
[8] abbreviates: second compound 0.0316 µM, first compound 0.316 µM.
[9] abbreviates: second compound 0.1 µM, first compound 0.0316 µM.
Setting [10] is: second compound 0.1 µM, first compound 0.316 µM.
[11] abbreviates: second compound 0.316 µM, first compound 0.0316 µM.
[12] abbreviates: second compound 0.316 µM, first compound 0.316 µM.
The mark [13] stands for this setting: second compound 1 µM, first compound 0.0316 µM.
[14] abbreviates: second compound 1 µM, first compound 0.316 µM.
Setting [15] is: second compound 3.16 µM, first compound 0.0316 µM.
[16] abbreviates: second compound 3.16 µM, first compound 0.316 µM.
Setting [17] is: second compound 10 µM, first compound 0.0316 µM.
[18] abbreviates: second compound 10 µM, first compound 0.316 µM.
[19] abbreviates: second compound 0.0316 µM, first compound 0.1 µM.
The mark [20] stands for this setting: second compound 0.0316 µM, first compound 1 µM.
The mark [21] stands for this setting: second compound 0.0316 µM, first compound 3.16 µM.
[22] abbreviates: second compound 0.0316 µM, first compound 10 µM.
Setting [23] is: second compound 0.1 µM, first compound 0.1 µM.
Where [24] appears, read: second compound 0.1 µM, first compound 1 µM.
[25] abbreviates: second compound 0.1 µM, first compound 3.16 µM.
[26] abbreviates: second compound 0.1 µM, first compound 10 µM.
Where [27] appears, read: second compound 0.316 µM, first compound 0.1 µM.
Setting [28] is: second compound 0.316 µM, first compound 1 µM.
Setting [29] is: second compound 0.316 µM, first compound 3.16 µM.
[30] abbreviates: second compound 0.316 µM, first compound 10 µM.
[31] abbreviates: second compound 1 µM, first compound 0.1 µM.
Setting [32] is: second compound 1 µM, first compound 1 µM.
The mark [33] stands for this setting: second compound 1 µM, first compound 3.16 µM.
Setting [34] is: second compound 1 µM, first compound 10 µM.
The mark [35] stands for this setting: second compound 3.16 µM, first compound 0.1 µM.
Setting [36] is: second compound 3.16 µM, first compound 1 µM.
The mark [37] stands for this setting: second compound 3.16 µM, first compound 3.16 µM.
[38] abbreviates: second compound 3.16 µM, first compound 10 µM.
Where [39] appears, read: second compound 10 µM, first compound 0.1 µM.
[40] abbreviates: second compound 10 µM, first compound 1 µM.
Where [41] appears, read: second compound 10 µM, first compound 3.16 µM.
Where [42] appears, read: second compound 10 µM, first compound 10 µM.

For orientation: IC50 means the midpoint of a concentration-inhibition curve. Broadly, the viability, T/C is the ratio of treated to control.
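Also: spheroids exposed to compounds for seven days before readout.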

As for `Cc1[nH]c2ccccc2c1CCNCc1ccc(/C=C/C(=O)NO)cc1` + CN(C)c1ccc(Nc2c3ccc(NC(=O)CCN4CCCC4)cc3nc3cc(NC(=O)CCN4CCCC4)ccc23)cc1, the IC50 under setting [1] was above 0.316 µM; the IC50 under setting [2] is above 0.316 µM; the IC50 under setting [3] is above 0.316 µM; the half-maximal inhibitory concentration (IC50) under setting [4] was above 0.316 µM; the IC50 under setting [5] was above 0.316 µM; the IC50 under setting [6] is above 0.316 µM. In addition, the viability, T/C reads like this: (second compound 0.0316 µM, first compound 0.000999 µM) 105%; (second compound 0.0316 µM, first compound 0.00316 µM) 111%; (second compound 0.0316 µM, first compound 0.00999 µM) 106%; under setting [7], 101%; (second compound 0.0316 µM, first compound 0.0999 µM) 106%; under setting [8], 72.2%. Further, the viability, T/C by setting is: (second compound 0.1 µM, first compound 0.000999 µM) 119%; (second compound 0.1 µM, first compound 0.00316 µM) 93.9%; (second compound 0.1 µM, first compound 0.00999 µM) 112%; under setting [9], 99.3%; (second compound 0.1 µM, first compound 0.0999 µM) 97.3%; under setting [10], 69.7%. Further, the viability, T/C runs as follows: (second compound 0.316 µM, first compound 0.000999 µM) 98.2%; (second compound 0.316 µM, first compound 0.00316 µM) 97.5%; (second compound 0.316 µM, first compound 0.00999 µM) 95.2%; under setting [11], 96.5%; (second compound 0.316 µM, first compound 0.0999 µM) 105%; under setting [12], 78.4%. Besides, the viability, T/C by setting is: (second compound 1 µM, first compound 0.000999 µM) 97.8%; (second compound 1 µM, first compound 0.00316 µM) 106%; (second compound 1 µM, first compound 0.00999 µM) 98.8%; under setting [13], 108%; (second compound 1 µM, first compound 0.0999 µM) 98%; under setting [14], 68%. For the same molecule, the viability, T/C was 93.4% (second compound 3.16 µM, first compound 0.000999 µM); 101% (second compound 3.16 µM, first compound 0.00316 µM); 101% (second compound 3.16 µM, first compound 0.00999 µM); 92.8% under setting [15]; 86.8% (second compound 3.16 µM, first compound 0.0999 µM); 61.1% under setting [16]. For the same molecule, the viability, T/C was 87.5% (second compound 10 µM, first compound 0.000999 µM); 85.9% (second compound 10 µM, first compound 0.00316 µM); 94.7% (second compound 10 µM, first compound 0.00999 µM); 82.6% under setting [17]; 91.1% (second compound 10 µM, first compound 0.0999 µM); 61.1% under setting [18].

Regarding `O=C(c1cc(Cc2n[nH]c(=O)c3ccccc23)ccc1F)N1CCN(C(=O)C2CC2)CC1`, the viability, T/C is 84.8% and 115% and 98.4% (compound 0.0316 µM); 94.2% and 98.6% and 103% (compound 0.1 µM); 93.2% and 99.7% and 95.8% (compound 0.316 µM); 99.4% and 97.6% and 92.7% (compound 1 µM); 72.7% and 105% and 88.9% (compound 3.16 µM); 88% and 93.6% and 77.6% (compound 10 µM). Moreover, where the note is “curve of compound”, the IC50 is above 10 µM.

For `COc1ccc([C@@H](O)c2cc(-c3ncnc4cc(N5CCOCC5)ccc34)c(F)cc2Cl)nn1`, the viability, T/C (compound 0.0316 µM) is 91.1% and 96.7% and 94.1%; the viability, T/C (compound 0.1 µM) was 79.7% and 91.7% and 86.8%; the viability, T/C (compound 0.316 µM) was 101% and 91.6% and 95.4%; the viability, T/C (compound 1 µM) is 70.5% and 92% and 82.2%; the viability, T/C (compound 3.16 µM) is 69% and 67.2% and 61%; the viability, T/C (compound 10 µM) was 50.5% and 51% and 46%. Further, under “curve of compound”, the half-inhibitory concentration (IC50) was > 10 µM and 7.33 µM.

On to `COc1cc(C2c3cc4c(cc3C(OC3OC5COC(C)OC5C(O)C3O)C3COC(=O)C23)OCO4)cc(OC)c1O` (centres undefined), for which the viability, T/C was 96.9% and 98.6% and 100% (compound 0.0316 µM); 90.3% and 81.4% and 90% (compound 0.1 µM); 110% and 86.1% and 104% (compound 0.316 µM); 97.4% and 90% and 94.7% (compound 1 µM); 95.6% and 68.2% and 90.1% (compound 3.16 µM); 77.5% and 61.8% and 75.3% (compound 10 µM). The IC50 (curve of compound) was above 10 µM.

With `CC(C)n1c(=O)n(C)c2cnc3cc(F)c(-c4ccc(OCCCN5CCCCC5)nc4)cc3c21` + Cc1cnc(CNC(=O)c2c(=O)c3ccc(N4CCCN(C)CC4)nc3n3c2sc2ccccc23)cn1, the IC50 is above 10 µM under setting [1]; above 10 µM under setting [2]; above 10 µM under setting [3]; 7.26 µM under setting [4]; 2.61 µM under setting [5]; below 0.0316 µM under setting [6]. Also, the viability, T/C is 80.7% under setting [7]; 80.8% under setting [19]; 88% under setting [8]; 80.9% under setting [20]; 84.6% under setting [21]; 56% under setting [22]. In addition, the viability, T/C under setting [9] was 87.1%; the viability, T/C under setting [23] is 76.8%; the viability, T/C under setting [10] is 91.7%; the viability, T/C under setting [24] was 66.3%; the viability, T/C under setting [25] is 84.6%; the viability, T/C under setting [26] was 51.5%. Also, the viability, T/C reads like this: under setting [11], 89%; under setting [27], 49.6%; under setting [12], 75.8%; under setting [28], 71.6%; under setting [29], 85.4%; under setting [30], 56.3%. Also, the viability, T/C under setting [13] is 90%; the viability, T/C under setting [31] was 64.4%; the viability, T/C under setting [14] is 69.9%; the viability, T/C under setting [32] is 68.6%; the viability, T/C under setting [33] was 73.5%; the viability, T/C under setting [34] was 41.1%. Besides, the viability, T/C was 51.5% under setting [15]; 47.4% under setting [35]; 57.8% under setting [16]; 54.6% under setting [36]; 49% under setting [37]; 20.4% under setting [38]. In addition, the viability, T/C runs as follows: under setting [17], 43.5%; under setting [39], 40.3%; under setting [18], 45.8%; under setting [40], 42.6%; under setting [41], 43.1%; under setting [42], 0.95%.

As to `CCCS(=O)(=O)Nc1ccc(F)c(C(=O)c2c[nH]c3ncc(-c4ccc(Cl)cc4)cc23)c1F` + Cc1[nH]c2ccc(F)cc2c1-c1nc2c3cccnc3c3ncccc3c2[nH]1, the IC50 under setting [1] was above 10 µM; the IC50 under setting [2] is above 10 µM; the IC50 under setting [3] is above 10 µM; the IC50 under setting [4] was 9.22 µM; the IC50 under setting [5] stood at 5.02 µM; the IC50 under setting [6] was found to be 2.51 µM. Further, the viability, T/C reads like this: under setting [7], 97.4%; under setting [19], 89.3%; under setting [8], 92.5%; under setting [20], 84.3%; under setting [21], 70.9%; under setting [22], 60.1%. Besides, the viability, T/C reads like this: under setting [9], 109%; under setting [23], 99.2%; under setting [10], 86%; under setting [24], 77.6%; under setting [25], 70.9%; under setting [26], 53.8%. Moreover, the viability, T/C was 107% under setting [11]; 93.9% under setting [27]; 77.7% under setting [12]; 73.4% under setting [28]; 66.6% under setting [29]; 54.7% under setting [30]. Also, the viability, T/C is, setting by setting: under setting [13], 93.9%; under setting [31], 89.8%; under setting [14], 85.3%; under setting [32], 76.2%; under setting [33], 63.9%; under setting [34], 49%. Moreover, the viability, T/C under setting [15] was 84%; the viability, T/C under setting [35] is 86.2%; the viability, T/C under setting [16] is 72%; the viability, T/C under setting [36] is 71.2%; the viability, T/C under setting [37] is 56.5%; the viability, T/C under setting [38] was 39.8%. Further, the viability, T/C is 69.2% under setting [17]; 72.6% under setting [39]; 63.3% under setting [18]; 66% under setting [40]; 46% under setting [41]; 37.1% under setting [42].

`Cc1[nH]c2ccc(F)cc2c1-c1nc2c3cccnc3c3ncccc3c2[nH]1`: the viability, T/C was 103% [middle of 12 runs] (compound 0.1 µM); 102% [middle of 12 runs] (compound 0.316 µM); 97% [middle of 12 runs] (compound 1 µM); 87.2% [middle of 12 runs] (compound 3.16 µM); 80.3% [middle of 12 runs] (compound 10 µM). Moreover, the IC50 by setting is: (compound alone, run of 04/16/2024) above 10 µM; (compound alone, run of 04/22/2024) above 10 µM.
